In one experiment the test system is Entercoccus faecalis 276. Kind of experiment: MIC, standard broth micro-dilution assay. The experiment is classed as cell-based. As for the experimental part: (§1) The formula I compounds have in vitro and in vivo activity against Gram-positive pathogenic bacteria. The MIC's were determined using a standard broth micro-dilution assay.
The test system of experiment [1] is Entercoccus gallinarum 245. Kind of experiment: MIC, standard broth micro-dilution assay. The experiment is classed as cell-based. As for the experimental part: as §1

≈ marks a conversion by molar mass, not a printed value.

As usually defined, the MIC is the smallest concentration in the dilution series that meets the test's criterion for growth inhibition. Low readings indicate greater potency, high ones weaker potency. `CNC(CC(C)C)C(=O)NC1C(=O)NC(CC(N)=O)C(=O)NC2C(=O)NC3C(=O)NC(C(=O)NC(C(=O)O)c4cc(O)cc(O)c4-c4cc3ccc4O)C(OC3CC(C)(N)C(O)C(C)O3)c3ccc(c(Cl)c3)Oc3cc2cc(c3OC2OC(CO)C(O)C(O)C2OC2CC(C)(NCCc3ccc(Oc4ccccc4)cc3)C(O)C(C)O2)Oc2ccc(cc2Cl)C1O` (stereo not shown) [Compound 63, 4-phenoxyphenethyl]: the figures for the MIC (with Entercoccus faecalis 276; in experiment [1]) were 0.5 µg/mL (≈ 0.28 µM) and 8 µg/mL (≈ 4.47 µM), respectively.

Consider `CNC(CC(C)C)C(=O)NC1C(=O)NC(CC(N)=O)C(=O)NC2C(=O)NC3C(=O)NC(C(=O)NC(C(=O)O)c4cc(O)cc(O)c4-c4cc3ccc4O)C(OC3CC(C)(N)C(O)C(C)O3)c3ccc(c(Cl)c3)Oc3cc2cc(c3OC2OC(CO)C(O)C(O)C2OC2CC(C)(NCCCCCCCCc3ccccc3)C(O)C(C)O2)Oc2ccc(cc2Cl)C1O` (stereo not shown) [Compound 176, 8-phenyloctyl], for which the MIC (in the experiment with Entercoccus faecalis 276; in experiment [1]) was 2 µg/mL (≈ 1.12 µM) in each case.

Regarding `CNC(CC(C)C)C(=O)NC1C(=O)NC(CC(N)=O)C(=O)NC2C(=O)NC3C(=O)NC(C(=O)NC(C(=O)O)c4cc(O)cc(O)c4-c4cc3ccc4O)C(OC3CC(C)(N)C(O)C(C)O3)c3ccc(c(Cl)c3)Oc3cc2cc(c3OC2OC(CO)C(O)C(O)C2OC2CC(C)(NCc3ccnc4ccccc34)C(O)C(C)O2)Oc2ccc(cc2Cl)C1O` (stereo not shown) [Compound 27, 4-quinolylmethyl], the MIC (in the experiment with Entercoccus faecalis 276; in experiment [1]) was 0.5 µg/mL (≈ 0.288 µM) in each case.

Regarding `CCc1ccc(-c2ccc(CNC3(C)CC(OC4C(Oc5c6cc7cc5Oc5ccc(cc5Cl)C(OC5CC(C)(N)C(O)C(C)O5)C5NC(=O)C(NC(=O)C7NC(=O)C(CC(N)=O)NC(=O)C(NC(=O)C(CC(C)C)NC)C(O)c7ccc(c(Cl)c7)O6)c6ccc(O)c(c6)-c6c(O)cc(O)cc6C(C(=O)O)NC5=O)OC(CO)C(O)C4O)OC(C)C3O)cc2)cc1` (stereo not shown) [Compound 90, 4-[4-ethylphenyl]benzyl], the MIC (with Entercoccus faecalis 276; in experiment [1]) was 2 µg/mL (≈ 1.12 µM) in each case.

On to `CNC(CC(C)C)C(=O)NC1C(=O)NC(CC(N)=O)C(=O)NC2C(=O)NC3C(=O)NC(C(=O)NC(C(=O)O)c4cc(O)cc(O)c4-c4cc3ccc4O)C(OC3CC(C)(N)C(O)C(C)O3)c3ccc(c(Cl)c3)Oc3cc2cc(c3OC2OC(CO)C(O)C(O)C2OC2CC(C)(NCc3ccc(N4CCCCC4C)cc3)C(O)C(C)O2)Oc2ccc(cc2Cl)C1O` (stereo not shown) [Compound 135, 4-[2-methyl-1-piperidino]benzyl], for which the MIC against Entercoccus faecalis 276 was found to be 0.5 µg/mL (≈ 0.281 µM); in experiment [1], 2 µg/mL (≈ 1.12 µM).

On to `CNC(CC(C)C)C(=O)NC1C(=O)NC(CC(N)=O)C(=O)NC2C(=O)NC3C(=O)NC(C(=O)NC(C(=O)O)c4cc(O)cc(O)c4-c4cc3ccc4O)C(OC3CC(C)(N)C(O)C(C)O3)c3ccc(c(Cl)c3)Oc3cc2cc(c3OC2OC(CO)C(O)C(O)C2OC2CC(C)(NCc3ccc(C(F)(F)F)cc3)C(O)C(C)O2)Oc2ccc(cc2Cl)C1O` (stereo not shown) [Compound 37, 4-trifluoromethylbenzyl], for which, in the experiment with Entercoccus faecalis 276, the minimal inhibitory concentration (MIC) was found to be 1 µg/mL (≈ 0.571 µM).

Consider `CC#CCCCCCCCCCCOc1ccc(CNC2(C)CC(OC3C(Oc4c5cc6cc4Oc4ccc(cc4Cl)C(OC4CC(C)(N)C(O)C(C)O4)C4NC(=O)C(NC(=O)C6NC(=O)C(CC(N)=O)NC(=O)C(NC(=O)C(CC(C)C)NC)C(O)c6ccc(c(Cl)c6)O5)c5ccc(O)c(c5)-c5c(O)cc(O)cc5C(C(=O)O)NC4=O)OC(CO)C(O)C3O)OC(C)C2O)cc1` (stereo not shown) [Compound 233, 4-[11-tridecynyloxy]benzyl], for which the MIC against Entercoccus faecalis 276 came out at 8 µg/mL (≈ 4.26 µM).

Take `CNC(CC(C)C)C(=O)NC1C(=O)NC(CC(N)=O)C(=O)NC2C(=O)NC3C(=O)NC(C(=O)NC(C(=O)O)c4cc(O)cc(O)c4-c4cc3ccc4O)C(OC3CC(C)(N)C(O)C(C)O3)c3ccc(c(Cl)c3)Oc3cc2cc(c3OC2OC(CO)C(O)C(O)C2OC2CC(C)(NCc3ccc(OCCCC#N)cc3)C(O)C(C)O2)Oc2ccc(cc2Cl)C1O` (stereo not shown) [Compound 55, 4-[3-cyanopropoxy]benzyl]: the minimum inhibitory concentration (MIC) with Entercoccus faecalis 276 came out at 0.5 µg/mL (≈ 0.283 µM).

The values above are taken from patent publication US5843889A, “Glycopeptide antibiotic derivatives” (Eli Lilly and Company, priority 1997, dated 1998).
